Source: article PMC4319564 (Journal of materials chemistry. B, Materials for biology …, 2014)

System: PTX-resistant KB-V1 cervical cancer cells
Experiment: Cytotoxicity, SRB assay
Format: cell-based
Details: 48 h incubation, 0.01-1000 nM, triplicate

## CC(=O)O[C@H]1C(=O)[C@@]2(C)[C@H]([C@H](OC(=O)c3ccccc3)[C@]3(O)C[C@H](OC(=O)[C@H](O)[C@@H](NC(=O)c4ccccc4)c4ccccc4)C(C)=C1C3(C)C)[C@]1(OC(C)=O)CO[C@@H]1C[C@@H]2O [PTX, paclitaxel]
  Toxicity (in words): do not exert any toxicity
